Assay results: paper PMC12285253, “Insights into genetic determinants of volatile fatty acid catabolism in Cupriavidus necator H16” (Applied and Environmental Microbiology, 2025)

What was measured:
[1] = target: T1, H16_B1148 (Cupriavidus necator, UniProt Q0K235); experiment: coupled NADH assay of ATP consumption (myokinase, pyruvate kinase, lactate dehydrogenase); type: biochemical; conditions: 2 mM substrate, 1 mM CoA, 2.1 mM ATP, 5 mM MgCl2, pH 7.5
T1 construct: N-terminal hexahistidine tag, E. coli BL21(DE3) delta-patZ, Ni-NTA and SEC
T1 sequence (Q0K235 1-544): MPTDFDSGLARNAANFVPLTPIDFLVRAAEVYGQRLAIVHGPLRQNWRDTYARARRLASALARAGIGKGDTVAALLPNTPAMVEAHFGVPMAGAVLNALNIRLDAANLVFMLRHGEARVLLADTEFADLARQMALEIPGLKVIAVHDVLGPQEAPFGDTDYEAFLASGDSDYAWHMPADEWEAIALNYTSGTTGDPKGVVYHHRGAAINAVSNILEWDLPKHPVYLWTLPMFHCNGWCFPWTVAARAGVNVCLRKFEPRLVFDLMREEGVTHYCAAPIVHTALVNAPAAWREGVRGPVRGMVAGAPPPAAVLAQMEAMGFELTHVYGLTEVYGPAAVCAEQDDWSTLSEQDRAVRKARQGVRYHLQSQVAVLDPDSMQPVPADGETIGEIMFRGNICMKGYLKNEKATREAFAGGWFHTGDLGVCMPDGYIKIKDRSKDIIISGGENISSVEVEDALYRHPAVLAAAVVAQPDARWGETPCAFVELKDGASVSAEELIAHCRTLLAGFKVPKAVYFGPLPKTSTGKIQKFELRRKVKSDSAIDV

[2] = target: T2, H16_B1335 (Cupriavidus necator, UniProt Q0K1J9); experiment: as above; type: biochemical; conditions: 2 mM substrate, 1 mM CoA, 2.1 mM ATP, 5 mM MgCl2, pH 7.5
T2 sequence (Q0K1J9 1-562): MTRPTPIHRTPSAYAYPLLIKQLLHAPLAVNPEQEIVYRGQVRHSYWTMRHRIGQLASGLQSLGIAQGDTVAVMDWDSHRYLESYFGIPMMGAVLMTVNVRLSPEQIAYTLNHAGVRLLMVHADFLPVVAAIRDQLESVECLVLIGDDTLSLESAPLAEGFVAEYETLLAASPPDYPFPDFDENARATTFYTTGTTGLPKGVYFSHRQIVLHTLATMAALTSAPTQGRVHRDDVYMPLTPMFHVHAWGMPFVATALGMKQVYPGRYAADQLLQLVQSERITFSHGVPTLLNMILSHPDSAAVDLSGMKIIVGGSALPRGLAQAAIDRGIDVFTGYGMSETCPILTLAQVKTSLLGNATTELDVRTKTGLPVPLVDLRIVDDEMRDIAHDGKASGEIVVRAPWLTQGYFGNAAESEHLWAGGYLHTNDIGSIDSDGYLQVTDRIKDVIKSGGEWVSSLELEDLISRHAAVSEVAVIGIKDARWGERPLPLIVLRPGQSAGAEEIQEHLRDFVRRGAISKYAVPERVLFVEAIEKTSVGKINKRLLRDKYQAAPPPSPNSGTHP

Question: With `CCC(=O)O` [C3, propionate] as the compound, how does the relative activity [1] read?
Answer: The relative activity was “The relative activity of H16_B1148 skewed toward shorter chain lengths”.

Question: Which relative activity [2] does the source give for `CCCCC(=O)O` [C5, valerate] here?
Answer: Its relative activity is “our in vitro assay results demonstrating that H16_B1335 is also active on valerate”.

Question: `CCCCCC(=O)O` [C6, hexanoate] was tested. Which relative activity [2] did it give?
Answer: The relative activity was “the relative activity of H16_B1335 skewed toward longer chain lengths”.
